Test results from PubChem BioAssay AID1963977 (Molecular Pharmacology Branch, DTP, NCI, 2024).
Values belong to the molecule of their own block, whether it stands above or below them.

Tested on: 624824-186-R-J3-PDC multicell spheroids, viability
Assay: Anticancer human tumor 624824-186-R-J3-PDC patient-derived colon adenocarcinoma cell line growth inhibition [PI3K]
Conditions: for IC50: curve of first compound; for viability, T/C: stronger effect = lower value
Summary of the method: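 Complex 3D spheroids (cancer cells + endothelial HUVEC + mesenchymal stem cells); drug pairs of targeted agent x inavolisib/alpelisib/duvelisib/copanlisib; half-log series from ~Cmax, max 10 microM if Cmax unknown; endpoint viability.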

[1] = second compound 0.0316 µM, first compound 0.0316 µM
[2] = second compound 0.0316 µM, first compound 0.1 µM
[3] = second compound 0.0316 µM, first compound 0.316 µM
[4] = second compound 0.0316 µM, first compound 1 µM
[5] = second compound 0.0316 µM, first compound 3.16 µM
[6] = second compound 0.0316 µM, first compound 10 µM
[7] = second compound 0.1 µM, first compound 0.0316 µM
[8] = second compound 0.1 µM, first compound 0.1 µM
[9] = second compound 0.1 µM, first compound 0.316 µM
[10] = second compound 0.1 µM, first compound 1 µM
[11] = second compound 0.1 µM, first compound 3.16 µM
[12] = second compound 0.1 µM, first compound 10 µM
[13] = second compound 0.316 µM, first compound 0.0316 µM
[14] = second compound 0.316 µM, first compound 0.1 µM
[15] = second compound 0.316 µM, first compound 0.316 µM
[16] = second compound 0.316 µM, first compound 1 µM
[17] = second compound 0.316 µM, first compound 3.16 µM
[18] = second compound 0.316 µM, first compound 10 µM
[19] = second compound 1 µM, first compound 0.0316 µM
[20] = second compound 1 µM, first compound 0.1 µM
[21] = second compound 1 µM, first compound 0.316 µM
[22] = second compound 1 µM, first compound 1 µM
[23] = second compound 1 µM, first compound 3.16 µM
[24] = second compound 1 µM, first compound 10 µM
[25] = second compound 3.16 µM, first compound 0.0316 µM
[26] = second compound 3.16 µM, first compound 0.1 µM
[27] = second compound 3.16 µM, first compound 0.316 µM
[28] = second compound 3.16 µM, first compound 1 µM
[29] = second compound 3.16 µM, first compound 3.16 µM
[30] = second compound 3.16 µM, first compound 10 µM
[31] = second compound 10 µM, first compound 0.0316 µM
[32] = second compound 10 µM, first compound 0.1 µM
[33] = second compound 10 µM, first compound 0.316 µM
[34] = second compound 10 µM, first compound 1 µM
[35] = second compound 10 µM, first compound 3.16 µM
[36] = second compound 10 µM, first compound 10 µM
[37] = second compound 0.0316 µM, first compound 0.000316 µM
[38] = second compound 0.0316 µM, first compound 0.001 µM
[39] = second compound 0.0316 µM, first compound 0.00316 µM
[40] = second compound 0.0316 µM, first compound 0.01 µM
[41] = second compound 0.1 µM, first compound 0.000316 µM
[42] = second compound 0.1 µM, first compound 0.001 µM
[43] = second compound 0.1 µM, first compound 0.00316 µM
[44] = second compound 0.1 µM, first compound 0.01 µM
[45] = second compound 0.316 µM, first compound 0.000316 µM
[46] = second compound 0.316 µM, first compound 0.001 µM
[47] = second compound 0.316 µM, first compound 0.00316 µM
[48] = second compound 0.316 µM, first compound 0.01 µM
[49] = second compound 1 µM, first compound 0.000316 µM
[50] = second compound 1 µM, first compound 0.001 µM
[51] = second compound 1 µM, first compound 0.00316 µM
[52] = second compound 1 µM, first compound 0.01 µM
[53] = second compound 3.16 µM, first compound 0.000316 µM
[54] = second compound 3.16 µM, first compound 0.001 µM
[55] = second compound 3.16 µM, first compound 0.00316 µM
[56] = second compound 3.16 µM, first compound 0.01 µM
[57] = second compound 10 µM, first compound 0.000316 µM
[58] = second compound 10 µM, first compound 0.001 µM
[59] = second compound 10 µM, first compound 0.00316 µM
[60] = second compound 10 µM, first compound 0.01 µM
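Note: spheroids exposed to agents for seven days before luminescence read.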
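Throughout, for viability, T/C: luminescent signal used as a stand-in for spheroid viability; percent viability relative to DMSO vehicle control wells taken as 100%.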

IC50 (second compound 0.0316 µM): > 10 µM
IC50 (second compound 0.1 µM): > 10 µM
IC50 (second compound 0.316 µM): > 10 µM
IC50 (second compound 1 µM): > 10 µM
IC50 (second compound 3.16 µM): 6.42 µM
IC50 (second compound 10 µM): 8.04 µM
Structure (SMILES): CC(C)NCC(C(=O)N1CCN(c2ncnc3c2C(C)CC3O)CC1)c1ccc(Cl)cc1 (stereo not given) + CC(Nc1ncnc2nc[nH]c12)c1cc2cccc(Cl)c2c(=O)n1-c1ccccc1
viability, T/C [1]: 124%
viability, T/C [2]: 99%
viability, T/C [3]: 94.2%
viability, T/C [4]: 80.5%
viability, T/C [5]: 72.5%
viability, T/C [6]: 52.4%
viability, T/C [7]: 108%
viability, T/C [8]: 89.1%
viability, T/C [9]: 95.5%
viability, T/C [10]: 81.2%
viability, T/C [11]: 59.9%
viability, T/C [12]: 56.2%
viability, T/C [13]: 103%
viability, T/C [14]: 103%
viability, T/C [15]: 106%
viability, T/C [16]: 79.2%
viability, T/C [17]: 59.8%
viability, T/C [18]: 54.2%
viability, T/C [19]: 104%
viability, T/C [20]: 110%
viability, T/C [21]: 115%
viability, T/C [22]: 74.7%
viability, T/C [23]: 62.8%
viability, T/C [24]: 45.8%
viability, T/C [25]: 93%
viability, T/C [26]: 89.7%
viability, T/C [27]: 89.5%
viability, T/C [28]: 71.6%
viability, T/C [29]: 57.4%
viability, T/C [30]: 45.7%
viability, T/C [31]: 98.2%
viability, T/C [32]: 89.5%
viability, T/C [33]: 80%
viability, T/C [34]: 72%
viability, T/C [35]: 56%
viability, T/C [36]: 48.7%

IC50 (second compound 0.0316 µM): > 0.1 µM
IC50 (second compound 0.1 µM): > 0.1 µM
IC50 (second compound 0.316 µM): > 0.1 µM
IC50 (second compound 1 µM): > 0.1 µM
IC50 (second compound 3.16 µM): 0.0918 µM
IC50 (second compound 10 µM): 0.0619 µM
Structure (SMILES): CC(C)n1nc(-c2ccc3oc(N)nc3c2)c2c(N)ncnc21 + CC(Nc1ncnc2nc[nH]c12)c1cc2cccc(Cl)c2c(=O)n1-c1ccccc1
viability, T/C [37]: 97.5%
viability, T/C [38]: 102%
viability, T/C [39]: 103%
viability, T/C [40]: 101%
viability, T/C [1]: 98.7%
viability, T/C [2]: 62.4%
viability, T/C [41]: 95.5%
viability, T/C [42]: 107%
viability, T/C [43]: 116%
viability, T/C [44]: 107%
viability, T/C [7]: 91.5%
viability, T/C [8]: 69%
viability, T/C [45]: 98.8%
viability, T/C [46]: 101%
viability, T/C [47]: 113%
viability, T/C [48]: 109%
viability, T/C [13]: 97.1%
viability, T/C [14]: 58.7%
viability, T/C [49]: 102%
viability, T/C [50]: 111%
viability, T/C [51]: 100%
viability, T/C [52]: 103%
viability, T/C [19]: 98.1%
viability, T/C [20]: 62.2%
viability, T/C [53]: 105%
viability, T/C [54]: 111%
viability, T/C [55]: 96.3%
viability, T/C [56]: 97.1%
viability, T/C [25]: 85.3%
viability, T/C [26]: 46.6%
viability, T/C [57]: 93.2%
viability, T/C [58]: 91.3%
viability, T/C [59]: 95.1%
viability, T/C [60]: 79.9%
viability, T/C [31]: 68.1%
viability, T/C [32]: 37.6%

IC50 (second compound 0.0316 µM): > 0.1 µM
IC50 (second compound 0.1 µM): > 0.1 µM
IC50 (second compound 0.316 µM): > 0.1 µM
IC50 (second compound 1 µM): > 0.1 µM
IC50 (second compound 3.16 µM): > 0.1 µM
IC50 (second compound 10 µM): > 0.1 µM
Structure (SMILES): Cn1ncnc1[C@H]1c2n[nH]c(=O)c3cc(F)cc(c23)N[C@@H]1c1ccc(F)cc1 + CC(Nc1ncnc2nc[nH]c12)c1cc2cccc(Cl)c2c(=O)n1-c1ccccc1
viability, T/C [37]: 104%
viability, T/C [38]: 101%
viability, T/C [39]: 135%
viability, T/C [40]: 104%
viability, T/C [1]: 116%
viability, T/C [2]: 117%
viability, T/C [41]: 104%
viability, T/C [42]: 96.3%
viability, T/C [43]: 107%
viability, T/C [44]: 102%
viability, T/C [7]: 95.9%
viability, T/C [8]: 120%
viability, T/C [45]: 99.2%
viability, T/C [46]: 108%
viability, T/C [47]: 110%
viability, T/C [48]: 106%
viability, T/C [13]: 114%
viability, T/C [14]: 118%
viability, T/C [49]: 98.5%
viability, T/C [50]: 105%
viability, T/C [51]: 105%
viability, T/C [52]: 101%
viability, T/C [19]: 111%
viability, T/C [20]: 111%
viability, T/C [53]: 109%
viability, T/C [54]: 107%
viability, T/C [55]: 109%
viability, T/C [56]: 110%
viability, T/C [25]: 104%
viability, T/C [26]: 112%
viability, T/C [57]: 97.8%
viability, T/C [58]: 93%
viability, T/C [59]: 101%
viability, T/C [60]: 98.2%
viability, T/C [31]: 90.1%
viability, T/C [32]: 95.1%

The remaining lines, values behind:

Structure (SMILES): CC1(C)CCC(CN2CCN(c3ccc(C(=O)NS(=O)(=O)c4ccc(NCC5CCOCC5)c([N+](=O)[O-])c4)c(Oc4cnc5[nH]ccc5c4)c3)CC2)=C(c2ccc(Cl)cc2)C1 + CC(Nc1ncnc2nc[nH]c12)c1cc2cccc(Cl)c2c(=O)n1-c1ccccc1
IC50 (second compound 0.0316 µM): 7.77 µM
IC50 (second compound 0.1 µM): 7.33 µM
IC50 (second compound 0.316 µM): 8.72 µM
IC50 (second compound 1 µM): 7.87 µM
IC50 (second compound 3.16 µM): 8.48 µM
IC50 (second compound 10 µM): 9 µM
viability, T/C [1]: 112%
viability, T/C [2]: 94.8%
viability, T/C [3]: 116%
viability, T/C [4]: 96.7%
viability, T/C [5]: 106%
viability, T/C [6]: 34.5%
viability, T/C [7]: 103%
viability, T/C [8]: 92.4%
viability, T/C [9]: 91.4%
viability, T/C [10]: 90.1%
viability, T/C [11]: 111%
viability, T/C [12]: 32.5%
viability, T/C [13]: 110%
viability, T/C [14]: 114%
viability, T/C [15]: 108%
viability, T/C [16]: 106%
viability, T/C [17]: 117%
viability, T/C [18]: 41.6%
viability, T/C [19]: 97.9%
viability, T/C [20]: 111%
viability, T/C [21]: 112%
viability, T/C [22]: 99.2%
viability, T/C [23]: 117%
viability, T/C [24]: 35%
viability, T/C [25]: 109%
viability, T/C [26]: 97.2%
viability, T/C [27]: 102%
viability, T/C [28]: 111%
viability, T/C [29]: 125%
viability, T/C [30]: 40.1%
viability, T/C [31]: 88.6%
viability, T/C [32]: 95.3%
viability, T/C [33]: 94.6%
viability, T/C [34]: 93.8%
viability, T/C [35]: 108%
viability, T/C [36]: 45.3%

Structure (SMILES): C[C@@H](NC(=O)c1ncnc(N)c1Cl)c1ncc(C(=O)Nc2cc(C(F)(F)F)c(Cl)cn2)s1 + CC(Nc1ncnc2nc[nH]c12)c1cc2cccc(Cl)c2c(=O)n1-c1ccccc1
IC50 (second compound 0.0316 µM): > 10 µM
IC50 (second compound 0.1 µM): > 10 µM
IC50 (second compound 0.316 µM): > 10 µM
IC50 (second compound 1 µM): > 10 µM
IC50 (second compound 3.16 µM): > 10 µM
IC50 (second compound 10 µM): > 10 µM
viability, T/C [1]: 115%
viability, T/C [2]: 100%
viability, T/C [3]: 107%
viability, T/C [4]: 100%
viability, T/C [5]: 99.8%
viability, T/C [6]: 94.4%
viability, T/C [7]: 100%
viability, T/C [8]: 101%
viability, T/C [9]: 104%
viability, T/C [10]: 107%
viability, T/C [11]: 101%
viability, T/C [12]: 107%
viability, T/C [13]: 96.8%
viability, T/C [14]: 105%
viability, T/C [15]: 92.5%
viability, T/C [16]: 96.1%
viability, T/C [17]: 98.8%
viability, T/C [18]: 97.6%
viability, T/C [19]: 99.2%
viability, T/C [20]: 94.4%
viability, T/C [21]: 110%
viability, T/C [22]: 92.8%
viability, T/C [23]: 94.8%
viability, T/C [24]: 83%
viability, T/C [25]: 97.1%
viability, T/C [26]: 102%
viability, T/C [27]: 104%
viability, T/C [28]: 94.3%
viability, T/C [29]: 93.8%
viability, T/C [30]: 73.3%
viability, T/C [31]: 100%
viability, T/C [32]: 94.7%
viability, T/C [33]: 96.3%
viability, T/C [34]: 83%
viability, T/C [35]: 82.2%
viability, T/C [36]: 61%
